# Measured values: article PMC5590943, “Pharmacological characterisation of S 47445, a novel positive allosteric modulator of AMPA receptors” (PLoS ONE, 2017)
# Columns and labels:
# Human AMPA receptors = test: AMPA-evoked currents, Xenopus laevis oocytes injected with human hippocampal poly(A+) mRNA; assay type: cell-based; details: geometric mean
# Description: (§1) Compounds were tested by bath application.
# [1] = test system: recombinant human AMPA receptors (GluA1, GluA2 and GluA4 flip and flop variants); test: Glutamate-evoked currents, oocytes, across GluA recombinants; assay type: cell-based; details: all tested subtypes except GluA4 flop; read-out: EC50 values among most GluA recombinants
# Description: as §1
# [2] = target: T1, GluA1flop/GluA2flip AMPA receptors (Homo sapiens, UniProt P42261+P42262, Q607R); test: 10 μM glutamate-evoked currents in Xenopus laevis oocytes expressing GluA1flop/GluA2flip (repetitive pulses, GYKI52466); assay type: cell-based; details: for EC50: n = 3
# T1 construct: host or cells: Xenopus laevis oocytes
# T1 sequence (P42261 19-906): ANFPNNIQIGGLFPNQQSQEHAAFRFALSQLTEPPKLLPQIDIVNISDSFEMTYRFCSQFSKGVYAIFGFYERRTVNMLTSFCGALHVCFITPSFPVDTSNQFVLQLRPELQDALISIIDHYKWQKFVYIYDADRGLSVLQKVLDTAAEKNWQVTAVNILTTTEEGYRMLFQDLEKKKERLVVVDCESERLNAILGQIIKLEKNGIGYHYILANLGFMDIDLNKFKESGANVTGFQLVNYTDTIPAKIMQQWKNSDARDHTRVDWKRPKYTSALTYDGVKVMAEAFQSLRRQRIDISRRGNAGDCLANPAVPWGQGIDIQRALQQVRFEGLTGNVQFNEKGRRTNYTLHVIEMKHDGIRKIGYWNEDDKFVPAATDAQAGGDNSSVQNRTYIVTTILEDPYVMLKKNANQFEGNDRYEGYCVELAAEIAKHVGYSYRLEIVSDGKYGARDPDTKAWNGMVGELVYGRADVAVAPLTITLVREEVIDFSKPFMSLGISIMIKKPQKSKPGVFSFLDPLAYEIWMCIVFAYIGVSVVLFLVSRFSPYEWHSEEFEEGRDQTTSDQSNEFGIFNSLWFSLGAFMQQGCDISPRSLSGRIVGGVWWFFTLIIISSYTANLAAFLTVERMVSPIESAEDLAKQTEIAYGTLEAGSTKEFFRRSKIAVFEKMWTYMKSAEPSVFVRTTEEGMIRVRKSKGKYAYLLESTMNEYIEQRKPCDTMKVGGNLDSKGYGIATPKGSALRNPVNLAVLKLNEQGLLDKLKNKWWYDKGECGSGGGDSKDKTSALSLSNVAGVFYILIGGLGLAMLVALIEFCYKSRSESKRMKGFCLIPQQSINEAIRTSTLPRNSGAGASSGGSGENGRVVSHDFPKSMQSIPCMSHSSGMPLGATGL
# T1 sequence (P42262 22-883 isoform P42262-2 Q607R limits assumed): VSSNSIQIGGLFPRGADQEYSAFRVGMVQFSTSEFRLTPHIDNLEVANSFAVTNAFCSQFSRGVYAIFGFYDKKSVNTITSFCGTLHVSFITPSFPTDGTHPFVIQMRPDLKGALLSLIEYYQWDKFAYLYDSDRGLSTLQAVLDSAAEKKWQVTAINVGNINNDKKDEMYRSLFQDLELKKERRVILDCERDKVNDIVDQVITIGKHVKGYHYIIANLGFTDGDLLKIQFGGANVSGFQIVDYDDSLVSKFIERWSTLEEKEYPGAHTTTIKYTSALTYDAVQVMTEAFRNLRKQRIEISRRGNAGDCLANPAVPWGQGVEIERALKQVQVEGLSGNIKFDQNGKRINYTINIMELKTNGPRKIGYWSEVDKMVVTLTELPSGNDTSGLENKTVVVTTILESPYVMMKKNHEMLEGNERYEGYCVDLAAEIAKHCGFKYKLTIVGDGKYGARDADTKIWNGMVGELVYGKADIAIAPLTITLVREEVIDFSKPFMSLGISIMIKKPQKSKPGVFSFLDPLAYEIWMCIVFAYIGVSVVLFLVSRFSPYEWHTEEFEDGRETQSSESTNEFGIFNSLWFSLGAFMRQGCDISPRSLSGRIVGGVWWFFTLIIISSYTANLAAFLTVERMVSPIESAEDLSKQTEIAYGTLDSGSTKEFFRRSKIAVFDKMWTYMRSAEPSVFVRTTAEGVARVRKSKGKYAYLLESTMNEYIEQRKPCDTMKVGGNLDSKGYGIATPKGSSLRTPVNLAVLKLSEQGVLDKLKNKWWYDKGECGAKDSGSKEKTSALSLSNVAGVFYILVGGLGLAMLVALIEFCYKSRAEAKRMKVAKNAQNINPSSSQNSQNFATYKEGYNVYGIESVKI
# Description: as §1
# To test the inhibition, the selective AMPA receptor antagonist GYKI52446 was used from 10 to 1000 μM on the potentiation caused by S 47445 (1 μM).
# EC50 were determined either using Matlab (Mathworks inc., Natick, USA) or SAS v9.2 (SAS Institute inc., Cary, USA) softwares. To have a comparative value between the tested drugs when EC50 could not be determined (absence of plateau at high concentrations), the EC2X was determined. EC2X corresponds to the concentrations of the drug responsible for a two-fold increase in the amplitude of the current.
# male adult Wistar rats = test: Spontaneous locomotor activity in rats; assay type: in vivo, rat; details: 10, 30 and 100 mg/kg p.o. acute; n = 9
# Description: Locomotor activity was recorded in male adult Wistar rats (180–200 g, Janvier Labs, Le Genest Saint Isle, France) placed in cages in a soundproof keeping room (open-field). A remote surveillance appliance allowed to observe and to record animal behaviour from an adjacent room. The movie camera was connected to an automatic analysis system (videotrack software, Viewpoint, Lissieu, France). The distance covered (cm) was automatically computed for each rat. Rats were orally administered 1 h before the test with S 47445 (10, 30 and 100 mg/kg) or vehicle. Locomotor activity was recorded during 30 min divided in 3 x 10-min periods. The total covered distance over 30 min was analysed using one way (dose) ANOVA, followed in case of significance of the dose effect by Dunnett’s test (versus vehicle controls). The significance threshold was set at 5%. Analyses were performed using SAS v9.2 software (SAS Institute, Cary, NC).
# male NMRI mice = test: Spontaneous locomotor activity in mice; assay type: in vivo, mouse; details: 10, 30 and 100 mg/kg p.o. acute
# Description: Locomotor activity was measured in male NMRI mice (18–20 g, Janvier Labs, Le Genest Saint Isle, France) placed in open-fields equipped with infrared sensors (Imetronic, Pessac, France). Two parameters were automatically computed: the global locomotor activity and the number of rearing by counting the number of times the animal cut photocells. Mice were placed in the apparatus 30 min after oral administration of S 47445 (10, 30 and 100 mg/kg) or vehicle. Spontaneous locomotor activity was recorded for 60 min divided in 6 x 10-min periods. The global locomotor activity was analysed using two way ANOVA (dose x time) followed by Dunnett’s post hoc test. Analyses were performed using SAS v9.2 software (SAS Institute, Cary, NC).
# Y (non-selective) = test: Binding assay, [3H]NPY
# I2 = test: Binding assay, [3H]idazoxan
# [3] = test system: Ca2+ channel (L, verapamil site) phenylalkylamines); test: Binding assay, [3H](-)D 888
# SK^+Ca channel = test: Binding assay, [125I]apamin
# α2 (non-selective) = test: Binding assay, [3H]RX 821002
# [4] = test system: Ca2+ channel (L, diltiazem site) (benzothiazepines); test: Binding assay, [3H]diltiazem
# [5] = test system: Ca2+ channel (L, DHP site); test: Binding assay, [3H](+)PN 200-110
# 5-HT1B = 5-HT1B (Rattus norvegicus, UniProt P28564); test: Binding assay, [125I]CYP (+ 30 μM (-)propranolol); details: probe [125I]CYP
# 5-HT1B, sequence (P28564 whole entry): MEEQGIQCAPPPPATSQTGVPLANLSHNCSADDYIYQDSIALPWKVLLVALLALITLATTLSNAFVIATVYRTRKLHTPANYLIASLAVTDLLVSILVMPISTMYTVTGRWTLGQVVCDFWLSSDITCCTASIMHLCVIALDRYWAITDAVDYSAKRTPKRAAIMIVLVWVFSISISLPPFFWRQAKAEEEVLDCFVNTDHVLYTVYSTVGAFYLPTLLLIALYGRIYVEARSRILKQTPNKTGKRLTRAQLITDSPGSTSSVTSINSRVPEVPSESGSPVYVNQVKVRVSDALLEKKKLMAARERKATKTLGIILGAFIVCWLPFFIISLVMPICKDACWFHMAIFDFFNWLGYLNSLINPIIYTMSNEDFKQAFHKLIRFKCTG
# p38a kinase (h) = p38a kinase (h) (Homo sapiens, UniProt Q16539); test: Enzyme and cell-based assay, ATP + ATF-2 (0.1 μM)
# p38a kinase (h), sequence (Q16539 whole entry): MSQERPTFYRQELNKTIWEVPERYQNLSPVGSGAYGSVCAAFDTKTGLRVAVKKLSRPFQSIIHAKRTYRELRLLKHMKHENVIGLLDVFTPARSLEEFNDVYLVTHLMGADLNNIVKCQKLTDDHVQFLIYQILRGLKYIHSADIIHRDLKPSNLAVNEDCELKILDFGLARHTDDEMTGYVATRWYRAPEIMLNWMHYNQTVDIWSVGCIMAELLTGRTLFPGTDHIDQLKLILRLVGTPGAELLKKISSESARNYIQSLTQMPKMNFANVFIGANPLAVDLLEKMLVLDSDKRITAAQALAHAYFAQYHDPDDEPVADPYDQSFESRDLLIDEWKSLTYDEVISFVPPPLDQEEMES
# [6] = test system: about a hundred receptors, enzymes, transporters and channels; test: CEREP panel, competition binding and enzyme assays
# AMPA = test: Binding assay, [3H]AMPA, rat cerebral cortex membranes
# [7] = test system: Adenylyl cyclase (stimulated); test: Enzyme and cell-based assay, ATP (0.5 mM) / forskolin (10 μM)
# NMDA receptors = test: NMDA-evoked currents, oocytes injected with rat cortex poly(A+) mRNA; details: n = 3
# kainate receptors = test: Kainate-evoked currents, oocytes injected with rat cortex poly(A+) mRNA; details: n = 3
compound,measurement,setting,value
"O=C1c2cc3nnn(CCc4cccc(F)c4)c(=O)c3cc2OCN1C1CC1 [S 47445, 8-cyclopropyl-3-[2-(3-fluorophenyl)ethyl]-7,8-dihydro-3H-[1,3]oxazino[6,5-g][1,2,3]benzotriazine-4,9-dione]",EC2X,Human AMPA receptors; concentration giving a two-fold increase in current amplitude,4.77 µM
same,EC50,Human AMPA receptors; potentiation of 10 μM AMPA-evoked current,7.08 µM
same,EC50,[1],2.5 to 5.4 µM
same,EC50,"[2]; EC50 of potentiation in absence of GYKI52466, 10 μM glutamate",3.23 ± 0.5 µM
same,EC50,"[2]; EC50 of potentiation in presence of 100μM of GYKI52466, 10 μM glutamate",1.99 ± 0.3 µM
same,Effect on glutamate-evoked currents with repetitive glutamate pulses,"[2]; S 47445 0.1 and 0.3 μM, 10 μM glutamate 20 s, 1/min",progressive potentiation of the glutamate-evoked currents from the second pulse of glutamate
same,Total distance of spontaneous locomotor activity,male adult Wistar rats,did not significantly modify
same,Global spontaneous locomotor activity,male NMRI mice,did not significantly modify
same,Number of rearing,male NMRI mice,did not influence
same,% Inhibition of control specific binding,Y (non-selective); S 47445 1.0E-05 M,-6%
same,% Inhibition of control specific binding,Y (non-selective); S 47445 1.0E-07 M,-4%
same,% Inhibition of control specific binding,I2; S 47445 1.0E-05 M,29%
same,% Inhibition of control specific binding,I2; S 47445 1.0E-07 M,-5%
same,% Inhibition of control specific binding,[3]; S 47445 1.0E-05 M,-1%
same,% Inhibition of control specific binding,[3]; S 47445 1.0E-07 M,4%
same,% Inhibition of control specific binding,SK^+Ca channel; S 47445 1.0E-05 M,-10%
same,% Inhibition of control specific binding,SK^+Ca channel; S 47445 1.0E-07 M,13%
same,% Inhibition of control specific binding,α2 (non-selective); S 47445 1.0E-05 M,-5%
same,% Inhibition of control specific binding,α2 (non-selective); S 47445 1.0E-07 M,-2%
same,% Inhibition of control specific binding,[4]; S 47445 1.0E-05 M,25%
same,% Inhibition of control specific binding,[4]; S 47445 1.0E-07 M,-6%
same,% Inhibition of control specific binding,[5]; S 47445 1.0E-05 M,1%
same,% Inhibition of control specific binding,[5]; S 47445 1.0E-07 M,-16%
same,inhibition at 100 nM,5-HT1B,-7%
same,inhibition at 10 µM,5-HT1B,-3%
same,% Inhibition of control specific binding,p38a kinase (h); S 47445 1.0E-05 M,4%
same,% Inhibition of control specific binding,p38a kinase (h); S 47445 1.0E-07 M,2%
same,Percentage of inhibition of control value,"[6]; 10 μM S 47445, all assays of S1 Table",lower than 50%
same,Ki,"[6]; read-out: Ki values in all these assays, inferred from <50% inhibition at 10 μM",> 10 µM
same,% Inhibition of control specific binding,AMPA; S 47445 1.0E-05 M,-8%
same,% Inhibition of control specific binding,AMPA; S 47445 1.0E-07 M,1%
same,Ki,"AMPA; read-out: Ki, glutamate binding site, n = 2",> 10 µM
same,% Inhibition of control specific binding,[7]; S 47445 1.0E-05 M,-21%
same,% Inhibition of control specific binding,[7]; S 47445 1.0E-07 M,6%
same,Effect at NMDA-evoked currents,NMDA receptors,absence of effect
same,Effect at kainate-evoked currents,kainate receptors,absence of effect
